Data as given in US20070134693A1, “Method for modulating the binding activity of a novel ICAM-3 binding receptor on sinusoidal endothelial cells in liver and lymph nodes” (priority 2000, published 2007).

Legend:
Assay type in all cases: cell-based
DC-SIGN [1] = target: T1, DC-SIGN (Homo sapiens, UniProt Q9NNX6); assay: Fluorescent beads adhesion assay, K562-DC-SIGN cells; details: for inhibition of adhesion of ICAM-3-coated fluorescent beads to DC-SIGN: FIG. 4A; for inhibition of adhesion of HIV-1 gp120-coated fluorescent beads to DC-SIGN: FIG. 4B
T1 construct: expressed in transfected cells
T1 sequence (Q9NNX6 1-404): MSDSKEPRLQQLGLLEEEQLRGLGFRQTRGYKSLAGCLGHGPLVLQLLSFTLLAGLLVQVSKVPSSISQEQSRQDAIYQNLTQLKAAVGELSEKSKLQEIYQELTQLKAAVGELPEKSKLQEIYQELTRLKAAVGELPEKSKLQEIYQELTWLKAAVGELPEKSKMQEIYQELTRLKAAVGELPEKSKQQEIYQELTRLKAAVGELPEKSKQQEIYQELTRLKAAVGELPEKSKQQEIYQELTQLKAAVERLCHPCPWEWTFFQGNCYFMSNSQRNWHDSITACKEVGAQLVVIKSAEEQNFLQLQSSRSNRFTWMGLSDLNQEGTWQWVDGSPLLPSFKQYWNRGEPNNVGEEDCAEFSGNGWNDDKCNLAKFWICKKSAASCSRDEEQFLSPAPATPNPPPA
Procedure: (§1) FIG. 4. L-SIGN binds ICAM-3 (A) and HIV-1 gp120 (B). Adhesion of ICAM-3 and gp120 to the K562-L-SIGN and K562-DC-SIGN cells was measured with the fluorescent bead adhesion assay (Geijtenbeek, T. B. et al., 1999, Blood 94:754-764). The y-axis represents the percent cells binding ligand-coated fluorescent beads. The L-SIGN-cross-reacting mAb AZN-D2 (20 μg/ml) and AZN-D3 (20 μg/ml) inhibit the adhesion of ICAM-3 and gp120 to L-SIGN, in contrast to the DC-SIGN-specific mAb AZN-D1 (20 μg/ml). […] Adhesion of both ligands to mock transfectants was less than 5%. One representative experiment out of three is shown (SD<5%).
(§2) Carboxylate-modified TransFluorSpheres (488/645 nm, 1.0 μm; Molecular Probes, Eugene, Oreg.) were coated with ICAM-3 as was previously described for ICAM-1 (Geijtenbeek, T. B. et al., 1999, Blood 94:754-764). Fluorescent beads were coated with M-tropic HIV-1MN envelope glycoprotein gp120 as follows: Streptavidin-coated fluorescent beads were incubated with biotinylated F(ab′)2 fragment rabbit anti-sheep IgG (6 μg/ml; Jackson Immunoresearch) followed by an overnight incubation with sheep-anti-gp120 antibody D7324 (Aalto Bio Reagents Ltd, Dublin, Ireland) at 4° C. The beads were washed and incubated with 250 ng/ml purified HIV-1 gp120 (provided by Immunodiagnostics, Inc through the NIH AIDS Research and Reference Reagent Program) overnight at 4° C.
(§3) The fluorescent beads adhesion assay was performed as described by Geijtenbeek et al.(l999, supra). Briefly, cells were resuspended in adhesion buffer (20 mM Tris-HCl pH 8.0, 150 mM NaCl, 1 mM CaCl2, 2 mM MgCl2, 0.5% BSA) at a final concentration of 5×10^6 cells/ml. 50,000 cells were pre-incubated with mAb (20 μg/ml) for 10 min at room temperature. Ligand-coated fluorescent beads (20 beads/cell) were added and the suspension was incubated for 30 min at 37° C. Adhesion was determined by measuring the percentage of cells that bound fluorescent beads using flow cytometry on a FACScan (Becton Dickinson, Oxnard, Calif.).

L-SIGN [2] = target: T2, L-SIGN (Homo sapiens, UniProt Q9H2X3); assay: Fluorescent beads adhesion assay, K562-L-SIGN cells; details: for inhibition of adhesion of ICAM-3-coated fluorescent beads to L-SIGN: FIG. 4A; for inhibition of adhesion of HIV-1 gp120-coated fluorescent beads to L-SIGN: FIG. 4B
T2 construct: The L-SIGN cDNA clone isolated from placental mRNA contained the entire coding region of the gene; expressed in transfected cells
T2 sequence (Q9H2X3 1-376 isoform Q9H2X3-8): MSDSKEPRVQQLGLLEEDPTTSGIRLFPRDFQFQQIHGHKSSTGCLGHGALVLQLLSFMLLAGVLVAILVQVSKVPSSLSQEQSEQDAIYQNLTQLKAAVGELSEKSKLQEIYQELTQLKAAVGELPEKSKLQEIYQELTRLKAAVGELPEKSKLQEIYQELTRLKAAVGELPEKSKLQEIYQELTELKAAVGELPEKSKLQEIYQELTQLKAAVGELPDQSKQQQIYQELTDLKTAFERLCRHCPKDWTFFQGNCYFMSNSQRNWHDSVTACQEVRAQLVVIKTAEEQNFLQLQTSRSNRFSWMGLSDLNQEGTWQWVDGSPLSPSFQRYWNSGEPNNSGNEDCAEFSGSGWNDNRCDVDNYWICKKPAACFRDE
Procedure: as §1, §2, §3

L-SIGN [3] = target: T2, L-SIGN; assay: HIV-1 enhancement assay, pseudotyped HIV-1 ADA, HEK293T cells expressing L-SIGN co-cultured with activated T cells; details: preincubation 20 μg/ml, after two days, FIG. 5B
Procedure: (§4) FIG. 5. L-SIGN captures and enhances infection of T cells with HIV-1 in trans. (A) L-SIGN captures HIV-1 and transmits it to target cells. Stable DC-SIGN or L-SIGN expressing THP-1 transfectants were pre-incubated with HIV-luc/JRFL pseudovirions to allow capture of the virus. Cells were washed and THP-1 transfectants were co-cultured with Hut/CCR5 target cells. Cell lysates were obtained after 3 days and analyzed for luciferase activity. For each of the co-culture conditions employed, mock infected controls were uniformly less than 100 counts per second in activity. Each data set represents the mean of four separate wells of infected cells. One representative experiment out of two is shown. […] Infectivity was determined after two days by measuring luciferase activity. […] Culture supernatants were collected at day 14 after K562-T cell co-culture and HIV-1 production was measured using ELISA to determine p24 antigen levels. […]
(§5) The infection assays were performed as described previously (Geijtenbeek, 2000a, supra; Geijtenbeek 2000b, supra). […] Viral stocks were evaluated by limiting dilution on GHOST CXCR4/CCR5 and 293T-CD4-CCR5 cells.
(§6) In contrast, HIV-1 enhancement assays utilized suboptimal concentrations of virus (typically <0.05 m.o.i.) without a wash step. […] Cell lysates were obtained after several days and analyzed for either luciferase activity or p24 antigen levels. […]

DC-SIGN [4] = target: T1, DC-SIGN; assay: HIV-1 enhancement assay, pseudotyped HIV-1 ADA, HEK293T cells expressing DC-SIGN co-cultured with activated T cells; details: preincubation 20 μg/ml, after two days, FIG. 5B
Procedure: as §4, §5, §6

| Compound | inhibition of adhesion of ICAM-3-coated fluorescent beads to DC-SIGN (DC-SIGN [1]; 5 mM) | inhibition of adhesion of HIV-1 gp120-coated fluorescent beads to DC-SIGN (DC-SIGN [1]; 5 mM) | inhibition of adhesion of ICAM-3-coated fluorescent beads to L-SIGN (L-SIGN [2]; 5 mM) | inhibition of adhesion of HIV-1 gp120-coated fluorescent beads to L-SIGN (L-SIGN [2]; 5 mM) | inhibition of L-SIGN-mediated enhancement of HIV-1 infection of T cells in trans (luciferase activity) (L-SIGN [3]) | inhibition of DC-SIGN-mediated enhancement of HIV-1 infection of T cells in trans (luciferase activity) (DC-SIGN [4]) | inhibition of adhesion of ICAM-3-coated fluorescent beads to DC-SIGN (DC-SIGN [1]; 20 μg/ml) | inhibition of adhesion of HIV-1 gp120-coated fluorescent beads to DC-SIGN (DC-SIGN [1]; 20 μg/ml) | inhibition of adhesion of ICAM-3-coated fluorescent beads to L-SIGN (L-SIGN [2]; 20 μg/ml) | inhibition of adhesion of HIV-1 gp120-coated fluorescent beads to L-SIGN (L-SIGN [2]; 20 μg/ml) |
| --- | --- | --- | --- | --- | --- | --- | --- | --- | --- | --- |
| O=C(O)CN(CCOCCOCCN(CC(=O)O)CC(=O)O)CC(=O)O [EGTA] | inhibited | inhibited | inhibited | inhibited |  |  |  |  |  |  |
| mannan |  |  |  |  | efficiently inhibited | efficiently inhibited | inhibited | inhibited | inhibited | inhibited |
